Test results reported in patent publication US20240148833A1, “COMPOSITION COMPRISING GLP-1 RECEPTOR AGONIST AND ACAT INHIBITOR” (EFIL BioScience Inc., priority 2022, published 2024).
Where two headings read alike, the source gives them in different places.

Experiments:
[1] = Cohort 2: sc administration every three days for 23 days in moderately obese DIO mice, body weight and food intake; assay type: in vivo, male C57BL/6 mice; conditions: for mean body weight loss, % of the starting body weight: sc every three days for 23 days, avasimibe 20 mg/kg BW, HF diet
Description: Cohort 2: The second set of animal experiments were conducted according to a protocol approved by the Purdue Animal Care and Use Committee (protocol number: 11129000347). Male C57BL/6 DIO mice were purchased from Jackson Laboratory. After 8-week HF diet feeding, mice were randomly assigned to the same groups as cohort 1: control, avasimibe, semaglutide, and combination groups. Avasimibe (20 mg/kg BW) and semaglutide (0.04 mg/kg BW) were prepared in the method used with regard to Cohort 1, and the drugs were sc injected every three days for 23 days. Mice were kept on a 12/12 h light/dark cycle in a humidity and temperature control facility with ad libitum access to food and water. To validate the impact of the combined treatment of semaglutide and avasimibe in DIO mice and to simulate a weekly semaglutide regimen for humans, we utilized Cohort 2 mice (FIG. 2A). On day 1, the average body weight of the mice was recorded as 37.37±3.58 grams. Throughout the treatment period, the mice in the vehicle group continued to gain weight, reaching an average body weight of 41.58±4.74 grams, representing a […] increase from the starting body weight (FIG. 2B). […] Specifically, the mean body weight losses were 0.82%, 8.56%, and 14.89% of the starting body weight for the mice treated with avasimibe, semaglutide, and the combination of both drugs, respectively (FIG. 2C).

[2] = Cohort 2: histological measurement of adipocyte size in inguinal fat pad (H&E); assay type: in vivo, male C57BL/6 mice; conditions: sc every three days for 23 days
Description: (§1) Cohort 2: The second set of animal experiments were conducted according to a protocol approved by the Purdue Animal Care and Use Committee (protocol number: 11129000347). Male C57BL/6 DIO mice were purchased from Jackson Laboratory. After 8-week HF diet feeding, mice were randomly assigned to the same groups as cohort 1: control, avasimibe, semaglutide, and combination groups. Avasimibe (20 mg/kg BW) and semaglutide (0.04 mg/kg BW) were prepared in the method used with regard to Cohort 1, and the drugs were sc injected every three days for 23 days. Mice were kept on a 12/12 h light/dark cycle in a humidity and temperature control facility with ad libitum access to food and water.
During animal sacrifice, adipose tissues were rinsed with saline solution, fixed in 10% neutral formalin buffered solution, and embedded in paraffin. The tissues were then cut into […] sections and stained with hematoxylin and eosin (H&E) to measure cell size (˜100 cells/mouse) by ImageJ software (NIH).

[3] = Cohort 1: daily sc administration in morbidly obese DIO mice, body weight, food intake, organ weight; assay type: in vivo, male C57BL/6 mice; conditions: for mean body weight change, % of starting body weight: initial 4-week period (day 28), avasimibe 10 mg/kg BW, semaglutide 0.04 mg/kg BW, HF diet
Description: (§2) Cohort 1: The first set of animal study was conducted at Nonclinical Research Institute, ChemOn Inc., and experimental procedures were approved by Institutional Animal Care and Use Committee (serial number 2021-09-007). Eight-week-old male C57BL/6 mice were purchased (Orient Bio Inc., Republic of Korea). After 2-week acclimation, the mice were fed with high-fat (HF) diet (cat #: D12492, Research Diets Inc.) for 12 weeks to develop DIO. These mice were then randomly assigned to control, avasimibe, semaglutide, and combination groups. Avasimibe solution was prepared for making the final concentration of avasimibe at 10 mg/kg BW, as described in Y. Zhu, S. Q. Kim, Y. Zhang, Q. Liu, K. H. Kim, Pharmacological inhibition of acyl-coenzyme A:cholesterol acyltransferase alleviates obesity and insulin resistance in diet-induced obese mice by regulating food intake, Metabolism 123 (2021) 154861, which is incorporated herein by reference. Semaglutide stock solution prepared in DMSO (1 mg/ml) was diluted with PBS for the final concentration of 0.04 mg/kg BW. The drug solution or the vehicle solution at a volume of 10 μl/g BW was injected to the mice sc daily for the indicated days.
Cohort 1 mice were used to investigate whether combined treatment with semaglutide and a lower dose avasimibe compared to single semaglutide injection in morbidly obese mice (FIG. 1A). On the first day of the experiment, the average body weight of the mice was recorded as 48.84±2.26 grams (FIG. 1B). […] Mice in the vehicle control and avasimibe groups were sacrificed after additional 16 days of treatment (FIG. 1A). Throughout the initial 4-week period, the mean body weight of the vehicle-treated animals increased by 1.2% compared to their starting body weight. In contrast, the mean body weight changes for mice treated with avasimibe, semaglutide, or the combination of both drugs were −6.29%, −21.66%, and −30.47% of their starting body weight, respectively (FIG. 1C). […] Y. Zhu, S. Q. Kim, Y. Zhang, Q. Liu, K. H. Kim, Pharmacological inhibition of acyl-coenzyme A:cholesterol acyltransferase alleviates obesity and insulin resistance in diet-induced obese mice by regulating food intake, Metabolism 123 (2021) 154861, which is incorporated herein by reference. Consequently, we increased the avasimibe dose to 20 mg/kg BW in the subsequent study involving the second cohort of mice. […] However, as the treatment regimen continued, food intake gradually returned to baseline levels, and the effect of semaglutide diminished around day 26. […] To investigate potential toxic effects of the combination treatment on the liver, we measured plasma ALT and AST levels.

[4] = assay type: in vivo, male C57BL/6 mice; set-up: Plasma Cholesterol / Plasma CE (cholesteryl ester): unit not given here; conditions: mean±SEM, n=10
Description: as §2
Body composition (e.g., fat mass, lean mass, free water, and total water) changes were assessed right before sacrificing the second cohort of mice using EchoMRI (Echo Medical Systems). Blood samples were obtained after fasting for 3h, frozen and stored until analysis. Aspartate transaminase (AST), alanine aminotransferase (ALT), glucose, triglycerides (TG), high-density lipoprotein (HDL-C) and low-density lipoprotein cholesterol (LDL-C) were also measured (AU680 Chemistry Analyzer, Beckman Coulter). The levels of serum leptin (cat #: ab100718, Abcam) and insulin (cat #: ab277390, Abcam) were determined by enzyme-linked immunosorbent assay kit and cholesterol/CE (cat #: ab65359, Abcam) was determined by an enzymatic assay according to the manufacturers' instructions.

[5] = daily intraperitoneal (ip) 20 mg/kg BW avasimibe for 14 day; cited from earlier work
[6] = Cohort 2: oral glucose tolerance test (OGTT); assay type: in vivo, male C57BL/6 mice; conditions: sc every three days, avasimibe 20 mg/kg BW; D-glucose 2 g/kg BW oral after 6 h fast
Description: as §1, with “water. Mice were fasted for 6 hrs (07:00-13:00) prior to oral administration of D-glucose (2 g/kg BW). Tail blood samples were obtained before (at 0) and at 15, 30, 60, 90 and 120 minutes after glucose challenge for the measurement of blood glucose concentration using a CONTOUR® NEXT glucometer (Ascensia Diabetes Care, Parsippany, NJ, USA).” for “water.”

[7] = Day 29, daily sc semaglutide 0.04 mg/kg BW with or without avasimibe 10 mg/kg BW
[8] = Day 43, daily sc avasimibe 10 mg/kg BW

## semaglutide
[1]; semaglutide 0.04 mg/kg BW
  mean body weight loss, % of the starting body weight: 8.56%
[1]; sc every three days, semaglutide 0.04 mg/kg BW
  time for food intake to recover after each administration: ≤ 48 h
[1]; sc every three days, by the seventh administration
  food intake by day 22, versus vehicle group: surpass that of the vehicle group
[2]
  percentage of large adipocytes (40,001-100,000 μm^2) compared to vehicle group: lower percentage
[3]; daily sc semaglutide 0.04 mg/kg BW
  day around which the effect on food intake diminished: ~26 days
[3]; daily sc
  mean body weight change, % of starting body weight: −21.66%
[3]; daily sc, early treatment period
  food intake compared to vehicle or avasimibe alone: rapid suppression of food intake
[4]; [7]
  Plasma CE (cholesteryl ester): 7.071 ± 0.240
  Plasma Cholesterol: 8.055 ± 0.292
  Plasma Glucose: 121.73 ± 6.26 mg/dL
  Plasma HDL: 37.02 ± 1.14 mg/dL
  Plasma Insulin: 0.41 ± 0.07 mIU/mL
  Plasma LDL: 5.05 ± 0.60 mg/dL
  Plasma Leptin: 2.99 ± 0.65 pg/mL
  Plasma TG (triglyceride): 21.60 ± 1.38 mg/dL

## CC(C)c1cc(C(C)C)c(CC(=O)NS(=O)(=O)Oc2c(C(C)C)cccc2C(C)C)c(C(C)C)c1 [Avasimibe, avasimibe]
[1]; semaglutide 0.04 mg/kg BW
  mean body weight loss, % of the starting body weight: 0.82%
[5]
  reduction in body weight: 24%
[2]
  percentage of large adipocytes (20,001-100,000 μm^2) compared to vehicle group: lower percentage
  percentage of small adipocytes (5,001-10,000 μm^2) compared to vehicle group: significantly higher percentage
[3]; daily sc
  mean body weight change, % of starting body weight: −6.29%
[6]
  glucose tolerance in OGTT: did not enhance glucose tolerance
[4]; [8]
  Plasma Glucose: 139.7 ± 6.32 mg/dL
  Plasma HDL: 35.13 ± 1.14 mg/dL
  Plasma Insulin: 1.43 ± 0.29 mIU/mL
  Plasma LDL: 7.14 ± 0.46 mg/dL
  Plasma Leptin: 6.72 ± 1.40 pg/mL
  Plasma TG (triglyceride): 33.80 ± 2.09 mg/dL
